Assay results: US20250099448A1, “HETEROCYCLIC COMPOUNDS” (Hoffmann-La Roche Inc., priority 2022, published 2025)

target: T1, MAGL protein (Homo sapiens, UniProt Q99685); assay: 2-AG assay: MAGL inhibitory activity by hydrolysis of 2-arachidonoylglycerol to arachidonic acid, followed by mass spectrometry; assay type: biochemical; details: 8 μM 2-arachidonoylglycerol, 15 min preincubation, 30 min reaction at RT, RapidFire MS readout
T1 sequence (Q99685 1-303): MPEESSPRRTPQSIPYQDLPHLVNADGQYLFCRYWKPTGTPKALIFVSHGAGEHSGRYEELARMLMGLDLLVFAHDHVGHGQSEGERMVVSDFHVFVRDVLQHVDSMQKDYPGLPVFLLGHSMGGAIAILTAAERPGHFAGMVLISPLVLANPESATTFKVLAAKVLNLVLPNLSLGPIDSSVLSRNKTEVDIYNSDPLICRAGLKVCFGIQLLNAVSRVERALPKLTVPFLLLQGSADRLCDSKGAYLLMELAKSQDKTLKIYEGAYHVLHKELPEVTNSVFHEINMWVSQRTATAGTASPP
Description: Compounds of formula (I) were profiled for MAGL inhibitory activity by determining the enzymatic activity by following the hydrolysis of the natural substrate 2-arachidonoylglycerol (2-AG) resulting in arachidonic acid, which can be followed by mass spectrometry. This assay is hereinafter abbreviated “2-AG assay”. The 2-AG assay was carried out in 384 well polypropylene assay plates. Compound dilutions were made in 100% DMSO in a polypropylene plate in 3-fold dilution steps to give a final concentration range in the assay from 12.5 μM to […]. Compound dilutions were added to MAGL protein in assay buffer (50 mM TRIS, 1 mM EDTA, 0.01% (v/v) Tween-20, 2.5% (v/v) DMSO). After shaking, the plate was incubated for 15 min at RT. To start the reaction, 2-arachidonoylglycerol in assay buffer was added. The final concentrations in the assay was […] for MAGL protein and 8 μM 2-arachidonoylglyerol. After shaking and 30 min incubation at RT, the reaction was quenched by the addition of two assay volumes of acetonitrile containing 4 μM of d8-arachidonic acid. The amount of arachidonic acid formed was traced by an online SPE system (Agilent Rapidfire) coupled to a triple quadrupole mass spectrometer. A C18 SPE cartridge (Agilent G9205A) was used in an acetonitrile/water liquid setup. The mass spectrometer was operated in negative electrospray mode following the mass transitions 303.1→259.1 for arachidonic acid and 311.1→267.0 for d8-arachidonic acid. The activity of the compounds was calculated based on the ratio of intensities [arachidonic acid/d8-arachidonic acid].

SMILES	IC50
Cc1nc(C(F)(F)F)c(CN2CC3(C2)CN(C(=O)N2CC4(CC(c5nc(C6CC6)n[nH]5)C4)C2)C3)s1 [compound 504]	1.04 nM
Cc1c(CN2CC3(C2)CN(C(=O)N2CC4(CC(c5nc(C6CC6)n[nH]5)C4)C2)C3)cnn1CC(F)(F)F [compound 640]	43.7 nM
O=C(N1CC2(CCC(Cc3cnc(C(F)(F)F)cn3)C2)C1)N1CC2(CC(c3nnc(C4CC4)[nH]3)C2)C1 (single isomer, unassigned) [compound 150]	0.82 nM
O=C(N1CC2(CCC(Cc3ccc(C(F)(F)F)nc3)CC2)C1)N1CC2(CC(c3nnc(C4CC4)[nH]3)C2)C1 [compound 140]	0.31 nM
O=C(N1CC2(CC(NCC3(C(F)(F)F)CC3)C2)C1)N1CC2(CC(c3nnc(C4CC4)[nH]3)C2)C1 [compound 221]	8.51 nM
O=C(N1CC2(CCN(Cc3cc(C(F)(F)F)[nH]n3)CC2)C1)N1CC2(CC(c3nc(C4CC4)n[nH]3)C2)C1 [compound 525]	7.08 nM
O=C(N1CC(c2cnc(N3CCC(C(F)(F)F)C3)nc2)C1)N1CC2(CC(c3nnc(C4CC4)[nH]3)C2)C1 (stereo not drawn) [compound 264]	2.27 nM
O=C(N1CC2(CC(c3nc(C4CC4)n[nH]3)C2)C1)N1CC2(CN(Cc3ccc[nH]c3=O)C2)C1 [compound 718]	550 nM
CC(C)(Oc1ccc(C2CN(C(=O)N3CC4(CC(c5nnc(C6CC6)[nH]5)C4)C3)C2)cc1)C(F)(F)F [compound 366]	0.08 nM
Cc1cc(C)n(C23CC(C4CN(C(=O)N5CC6(CC(c7nc(C8(O)CC8)n[nH]7)C6)C5)C4)(C2)C3)n1 [compound 712]	497 nM
O=C(N1CC2(CC(Cc3ccc4c(C(F)(F)F)n[nH]c4c3)C2)C1)N1CC2(CC(c3nc(C4CC4)n[nH]3)C2)C1 [compound 989]	0.05 nM
O=C(N1CC(COc2ccc(C(F)(F)F)cc2F)C1)N1CC2(CC(c3nnc(C4CC4)[nH]3)C2)C1 [compound 347]	0.31 nM
Cn1ncc(P(C)(C)=O)c1CN1CC2(C1)CN(C(=O)N1CC3(CC(c4nc(C5CC5)n[nH]4)C3)C1)C2 [compound 838]	102 nM
O=C(N1CC(c2ccc(N3CC(C(F)(F)F)C3)nc2)C1)N1CC2(CC(c3nnc(C4CCC4)[nH]3)C2)C1 [compound 260]	19.7 nM
Cn1cc(C(F)(F)F)c(CC2CC3(C2)CN(C(=O)N2CC4(CC(c5nc(C6CC6)n[nH]5)C4)C2)C3)n1 [compound 479]	0.18 nM
N=S(=O)(c1ccc(C2CN(C(=O)N3CC4(CC(c5nc(C6CC6)n[nH]5)C4)C3)C2)cc1)C(F)(F)F (stereo not drawn) [compound 638]	0.52 nM
N#Cc1cc(F)ccc1C12CC(C3CN(C(=O)N4CC5(CC(c6nc(C7CC7)n[nH]6)C5)C4)C3)(C1)C2 [compound 463]	0.56 nM
O=C(N1CC2(CC(Cn3cc(C(F)(F)F)cn3)C2)C1)N1CC2(CC(c3nc(C4(O)CC4)n[nH]3)C2)C1 [compound 671]	5.55 nM
O=C(N1CC(c2ccc(N3CC[C@H](C(F)(F)F)C3)nc2)C1)N1CC2(CC(c3nnc(C4CC4)[nH]3)C2)C1 [compound 267]	0.31 nM
O=C(N1CC2(CC(Cc3noc(C(F)(F)F)n3)C2)C1)N1CC2(CC(c3nc(C4CC4)n[nH]3)C2)C1 [compound 794]	1.03 nM
O=C(N1CC(OCc2cccc(S(=O)(=O)C(F)(F)F)c2)C1)N1CC2(CC(c3nnc(C4CC4)[nH]3)C2)C1 [compound 321]	10.8 nM
O=C(N1CC2(CCC(Cc3ccc(C(F)(F)F)nc3)CC2)C1)N1CC2(CC(c3nnc(C4(O)CC4)[nH]3)C2)C1 [compound 141]	10.6 nM
O=C(N1CC(NCc2ccc(C(F)(F)F)cc2F)C1)N1CC2(CC(c3nnc(C4CCC4)[nH]3)C2)C1 [compound 206]	232 nM
N=S(=O)(c1cccc(CC2CC3(C2)CN(C(=O)N2CC4(CC(c5nc(C6CC(F)(F)C6)n[nH]5)C4)C2)C3)c1)C(F)(F)F (stereo not drawn) [compound 657]	17.2 nM
N#CC1(c2ccc(C3CN(C(=O)N4CC5(CC(c6nnc(C7CC7)[nH]6)C5)C4)C3)cc2)CC1 [compound 376]	2.22 nM
N#Cc1ccc(CN2CC3(C2)CN(C(=O)N2CC4(CC(c5nc(C6CC6)n[nH]5)C4)C2)C3)c(C(F)(F)F)c1 [compound 882]	1.82 nM
O=C(N1CC2(CC(c3nnc(C4CC4)[nH]3)C2)C1)N1CC2(CN(Cc3cnc(C(F)(F)F)cn3)C2)C1 [compound 164]	18.3 nM

SMILES	IC50
O=C(N1CC2(CC(c3nnc(C4CC4)[nH]3)C2)C1)N1CC2(CC[C@H](Oc3cnc(C(F)(F)F)cn3)C2)C1 [compound 90]	7.88 nM
O=C(N1CC2(CC(Cn3cc(C(F)(F)F)ccc3=O)C2)C1)N1CC2(CC(c3nc(C4(O)CC4)n[nH]3)C2)C1 [compound 417]	6.2 nM
O=C(N1CC2(CC(Cc3ccc(F)cc3F)C2)C1)N1CC2(CC(c3nc(C4COC4)n[nH]3)C2)C1 [compound 835]	2.37 nM
O=C(N1CC2(CC(Oc3ccc(C(F)(F)F)nn3)C2)C1)N1CC2(CC(c3nnc(C4CC4)[nH]3)C2)C1 [compound 78]	3.92 nM
COc1cc(F)cc(C23CC(C4CN(C(=O)N5CC6(CC(c7nc(C8CC8)n[nH]7)C6)C5)C4)(C2)C3)c1 [compound 705]	0.57 nM
Cc1cc(C2CC2)n(-c2ccc(C3CN(C(=O)N4CC5(CC(c6nnc(C7CC7)[nH]6)C5)C4)C3)cc2)n1 [compound 287]	0.13 nM
Cn1nccc1CN1CC2(C1)CN(C(=O)N1CC3(CC(c4nc(C5CC5)n[nH]4)C3)C1)C2 [compound 901]	136 nM
COCn1ccnc1-c1ccccc1CN1CC2(C1)CN(C(=O)N1CC3(CC(c4nnc(C5CC5)[nH]4)C3)C1)C2 [compound 175]	34.3 nM
Cn1cnc(C#N)c1CN1CC2(C1)CN(C(=O)N1CC3(CC(c4nc(C5CC5)n[nH]4)C3)C1)C2 [compound 537]	237 nM
O=C(N1CC2(CC(Cc3ncc(F)cc3F)C2)C1)N1CC2(CC(c3ncn[nH]3)C2)C1 [compound 988]	2070 nM
O=C(N1CC(c2cnc(OCC3(C(F)(F)F)CC3)cn2)C1)N1CC2(CC(c3nc(C4CC4)n[nH]3)C2)C1 [compound 469]	1.12 nM
O=C(N1CC2(CC(c3nnc(C4CC4)[nH]3)C2)C1)N1CC2(C1)CN(c1ccc(C(F)(F)F)cn1)C2 [compound 682]	38.4 nM
O=C(N1CC2(CC(Cc3nc(C(F)(F)F)cs3)C2)C1)N1CC2(CC(c3nc(C4CC(F)(F)C4)n[nH]3)C2)C1 [compound 489]	75.3 nM
O=C(N1CC2(CCC(Cc3ccc(C(F)(F)F)cn3)CC2)C1)N1CC2(CC(c3nc(C4COC4)n[nH]3)C2)C1 [compound 814]	60.3 nM
NC(=O)C1(c2ccc(C3CN(C(=O)N4CC5(CC(c6nnc(C7CC7)[nH]6)C5)C4)C3)cc2)CC1 [Example 393, 1-[4-[1-[6-(5-cyclopropyl-4H-1,2,4-triazol-3-yl)-2-azaspiro[3.3]heptane-2-carbonyl]azetidin-3-yl]phenyl]cyclopropanecarboaamide]	1.2 nM
O=C(N1CC2(CCC(Cc3ccc(C(F)(F)F)cn3)CC2)C1)N1CC2(CC(c3nc(C4CC(F)(F)C4)n[nH]3)C2)C1 [compound 574]	65.4 nM
Cn1cc(OC2CC3(C2)CN(C(=O)N2CC4(CC(c5nc(C6CC6)n[nH]5)C4)C2)C3)cn1 [compound 542]	81.9 nM
O=C(N1CC2(CC(Cc3ccc(C(F)(F)F)cn3)C2)C1)N1CC2(CC(c3nnc(C4CCC4)[nH]3)C2)C1 [compound 112]	2.04 nM
O=C(N1CC(OCc2ccc(C(F)(F)F)cc2F)C1)N1CC2(CC(c3nnc([C@H](O)C(F)(F)F)[nH]3)C2)C1 (single isomer, unassigned) [Example 389]	15.2 nM
O=C(N1CC(C23CC(Cc4ccc(C(F)(F)F)nc4)(C2)C3)C1)N1CC2(CC(c3nc(C4(O)CC4)n[nH]3)C2)C1 [compound 570]	35.8 nM
O=C(N1CC2(CC(c3nnc(C4CC4)[nH]3)C2)C1)N1CC2(C1)CN(c1ncc(C(F)(F)F)cc1F)C2 [compound 678]	33.9 nM
O=C(N1CCC(CNS(=O)(=O)c2ccc(C(F)(F)F)cc2)CC1)N1CC2(CC(c3nnc(C4CC4)[nH]3)C2)C1 [compound 250]	41.5 nM
Cc1cc(C2CC2)n(C23CC(C4CN(C(=O)N5CC6(CC(c7nc(C8CC8)n[nH]7)C6)C5)C4)(C2)C3)n1 [compound 587]	2.4 nM
O=C(N1CC(c2ccc(N3CC(O)(C(F)(F)F)C3)nc2)C1)N1CC2(CC(c3nnc(C4CC4)[nH]3)C2)C1 [compound 275]	2.07 nM
O=C(N1CC(Cc2ccc(Cl)cc2)C1)N1CC2(CC(c3nnc(C4(O)CC4)[nH]3)C2)C1 [compound 361]	45.6 nM
CS(=O)(=O)c1cc(C(F)(F)F)ccc1CC1CC2(C1)CN(C(=O)N1CC3(CC(c4nc(C5COC5)n[nH]4)C3)C1)C2 [compound 827]	21.2 nM
O=C(N1CC2(CCC(Cc3nnc(C(F)(F)F)o3)CC2)C1)N1CC2(CC(c3nc(C4CC4)n[nH]3)C2)C1 [compound 779]	8.36 nM
